Data on one compound can be found in US9345703B2, “Kappa opioid receptor effectors and uses thereof” (University of Kansas, priority 2011, dated 2016).

Holding throughout (assay type): cell-based
One assay addresses DOR (Homo sapiens, UniProt P41143). The assay can be described thus: High content imaging β-arrestin translocation assay, DOR antagonist (DOR HCS). Conditions: antagonist; average; read-out: Potency, Antitarget DOR HCS.
The next assay addresses KOP receptor (Homo sapiens, UniProt P41145). In words: ERK 1/2 activation, inhibition.
The target of another assay is MOR (Homo sapiens, UniProt P35372). The assay can be described thus: High content imaging β-arrestin translocation assay, MOR antagonist (MOR HCS). To be noted: antagonist; average; read-out: Potency, Antitarget MOR HCS.

Marks after values point to notes of the source that are not given here.

Sequence of DOR (P41143 whole entry): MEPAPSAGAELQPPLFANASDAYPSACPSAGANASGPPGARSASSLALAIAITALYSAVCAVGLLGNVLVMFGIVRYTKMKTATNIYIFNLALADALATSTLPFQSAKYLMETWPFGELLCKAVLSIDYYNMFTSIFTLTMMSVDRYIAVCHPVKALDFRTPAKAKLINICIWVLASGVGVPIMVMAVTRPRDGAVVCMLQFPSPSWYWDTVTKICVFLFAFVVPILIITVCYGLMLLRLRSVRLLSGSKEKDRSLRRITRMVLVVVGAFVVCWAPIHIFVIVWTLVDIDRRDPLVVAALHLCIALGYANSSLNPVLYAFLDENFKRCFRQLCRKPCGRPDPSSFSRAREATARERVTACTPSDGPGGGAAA
Sequence of MOR (P35372 whole entry): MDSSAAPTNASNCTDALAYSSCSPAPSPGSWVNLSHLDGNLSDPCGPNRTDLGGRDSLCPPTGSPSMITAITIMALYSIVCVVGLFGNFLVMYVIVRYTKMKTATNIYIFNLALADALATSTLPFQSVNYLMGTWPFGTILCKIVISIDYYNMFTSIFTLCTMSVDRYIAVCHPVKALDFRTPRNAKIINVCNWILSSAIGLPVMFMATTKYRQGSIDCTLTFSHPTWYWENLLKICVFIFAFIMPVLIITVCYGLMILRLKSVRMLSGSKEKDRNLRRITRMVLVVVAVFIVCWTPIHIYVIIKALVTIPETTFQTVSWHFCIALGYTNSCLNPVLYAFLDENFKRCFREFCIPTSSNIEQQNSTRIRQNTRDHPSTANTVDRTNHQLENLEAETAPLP
Sequence of KOP receptor (P41145 whole entry): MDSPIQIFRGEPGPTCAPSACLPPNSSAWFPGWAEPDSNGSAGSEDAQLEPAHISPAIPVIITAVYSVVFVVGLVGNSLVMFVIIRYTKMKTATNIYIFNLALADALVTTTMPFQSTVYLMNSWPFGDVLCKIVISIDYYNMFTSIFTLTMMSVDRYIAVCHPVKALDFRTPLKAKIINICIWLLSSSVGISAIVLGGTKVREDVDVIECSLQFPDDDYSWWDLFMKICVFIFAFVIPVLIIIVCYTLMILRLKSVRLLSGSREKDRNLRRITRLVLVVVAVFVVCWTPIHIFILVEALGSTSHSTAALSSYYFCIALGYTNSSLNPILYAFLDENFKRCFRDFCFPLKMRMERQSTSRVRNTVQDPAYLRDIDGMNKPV

In the case of `COc1ccc(N2CCN(CCCNC(=O)Cn3c(=O)c4cccn4c4c(C)ccnc43)CC2)cc1` [Compound 1{3}, N-(3-(4-(4-Methoxyphenyl)piperazin-1-yl)propyl)-2-(1-methyl-6-oxopyrido[2,3-e]pyrrolo[1,2-a]pyrazin-5(6H)-yl)acetamide], the IC50 at DOR and on MOR was greater than 32 µM throughout. The “Imax (% NBNI)” value on KOP receptor was 90 ± 2^a % NBNI.
